Assay results: patent US12065442B2, “Tropomyosin receptor kinase (TRK) degradation compounds and methods of use” (Cullgen (Shanghai), Inc., priority 2018, dated 2024)
Like-named read-outs stand apart in the source and are kept apart here.

Test system: KM12 cells
Assay: Cell viability assay (CellTiter-Glo) in KM12 cells
Assay type: cell-based
Settings: Homo sapiens, 72 h, KM12 cell viability, CellTiter-Glo, 3 days, read-out: IC50

O=C1CCC(N2C(=O)c3ccc(NCCCCCC(=O)N4CCN(c5ccc(C(=O)Nc6n[nH]c7ccc(Cc8cc(F)cc(F)c8)cc67)c(NC6CCOCC6)c5)CC4)cc3C2=O)C(=O)N1 (centres unmarked) [TR-138, N-(5-(3,5-Difluorobenzyl)-1H-indazol-3-yl)-4-(4-(6-((2-(2,6-dioxopiperidin-3-yl)-1,3-dioxoisoindolin-5-yl)amino)hexanoyl)piperazin-1-yl)-2-((tetrahydro-2H-pyran-4-yl)amino)benzamide]
IC50 (Table 3): 31.1 nM

O=C1CCC(N2C(=O)c3ccc(C#CCN4CCN(c5cccc(-c6cnc7ccc(N8CCC[C@@H]8c8cccc(F)c8)nn67)n5)CC4)cc3C2=O)C(=O)N1 (stereo partly drawn) [TR-183, 2-(2,6-Dioxopiperidin-3-yl)-5-(3-(4-(6-(6-((R)-2-(3-fluorophenyl)pyrrolidin-1-yl)imidazo[1,2-b]pyridazin-3-yl)pyridin-2-yl)piperazin-1-yl)prop-1-yn-1-yl)isoindoline-1,3-dione]
IC50 (Table 3): 129 nM

Cc1ncsc1-c1ccc(CNC(=O)[C@@H]2C[C@@H](O)CN2C(=O)[C@@H](NC(=O)COCCOCC(=O)N2CCN(c3ccc(C(=O)Nc4n[nH]c5ccc(Cc6cc(F)cc(F)c6)cc45)c(NC4CCOCC4)c3)CC2)C(C)(C)C)cc1 [CPD-042, (2S,4R)-1-((S)-2-(2-(2-(2-(4-(4-((5-(3,5-Difluorobenzyl)-1H-indazol-3-yl)carbamoyl)-3-((tetrahydro-2H-pyran-4-yl)amino)phenyl)piperazin-1-yl)-2-oxoethoxy)ethoxy)acetamido)-3,3-dimethylbutanoyl)-4-hydroxy-N-(4-(4-methylthiazol-5-yl)benzyl)pyrrolidine-2-carboxamide]
IC50 (Table 2): > 1000 nM

O=C1CCC(N2Cc3cc(C#CC4CCN(c5cccc(-c6cnc7ccc(N8CCC[C@@H]8c8cccc(F)c8)nn67)n5)CC4)ccc3C2=O)C(=O)N1 (stereo partly drawn) [TR-208, 3-(5-((1-(6-(6-((R)-2-(3-fluorophenyl)pyrrolidin-1-yl)imidazo [1,2-b]pyridazin-3-yl)pyridin-2-yl)piperidin-4-yl)ethynyl)-1-oxoisoindolin-2-yl)piperidine-2,6-dione]
IC50 (Table 4): 7 nM

O=C(CN1CCN(c2ccc(C(=O)Nc3n[nH]c4ccc(Cc5cc(F)cc(F)c5)cc34)c(NC3CCOCC3)c2)CC1)NCCNc1cccc2c1C(=O)N(C1CCC(=O)NC1=O)C2=O (centres unmarked) [CPD-062, N-(5-(3,5-difluorobenzyl)-1H-indazol-3-yl)-4-(4-(2-((2-((2-(2,6-dioxopiperidin-3-yl)-1,3-dioxoisoindolin-4-yl)amino)ethyl)amino)-2-oxoethyl)piperazin-1-yl)-2-((tetrahydro-2H-pyran-4-yl)amino)benzamide]
IC50 (Table 2): 29 nM

O=C1CCC(N2Cc3cc(C#CC4CN(c5cccc(-c6cnc7ccc(N8CCC[C@@H]8c8cccc(F)c8)nn67)n5)C4)ccc3C2=O)C(=O)N1 (stereo partly drawn) [TR-219, 3-(5-((1-(6-(6-((R)-2-(3-Fluorophenyl)pyrrolidin-1-yl)imidazo[1,2-b]pyridazin-3-yl)pyridin-2-yl)azetidin-3-yl)ethynyl)-1-oxoisoindolin-2-yl)piperidine-2,6-dione]
IC50 (Table 4): 44.9 nM

Cc1ncsc1-c1ccc(CNC(=O)[C@@H]2C[C@@H](O)CN2C(=O)[C@@H](NC(=O)CCOCCOCCC(=O)N2CCN(c3ccc(C(=O)Nc4n[nH]c5ccc(Cc6cc(F)cc(F)c6)cc45)c(NC4CCOCC4)c3)CC2)C(C)(C)C)cc1 [CPD-038, (2S,4R)-1-((S)-2-(3-(2-(3-(4-(4-((5-(3,5-Difluorobenzyl)-1H-indazol-3-yl)carbamoyl)-3-((tetrahydro-2H-pyran-4-yl)amino)phenyl)piperazin-1-yl)-3-oxopropoxy)ethoxy)propanamido)-3,3-dimethylbutanoyl)-4-hydroxy-N-(4-(4-methylthiazol-5-yl)benzyl)pyrrolidine-2-carboxamide]
IC50 (Table 2): 359 nM

O=C(CN1CCN(c2ccc(C(=O)Nc3n[nH]c4ccc(Cc5cc(F)cc(F)c5)cc34)c(NC3CCOCC3)c2)CC1)NCCOCCNc1cccc2c1C(=O)N(C1CCC(=O)NC1=O)C2=O (centres unmarked) [TR-151, N-(5-(3,5-Difluorobenzyl)-1H-indazol-3-yl)-4-(4-(2-((2-(2-((2-(2,6-dioxopiperidin-3-yl)-1,3-dioxoisoindolin-4-yl)amino)ethoxy)ethyl)amino)-2-oxoethyl)piperazin-1-yl)-2-((tetrahydro-2H-pyran-4-yl)amino)benzamide]
IC50 (Table 3): 3.1 nM

O=C1CCC(N2Cc3ccc(CCCN4CCN(c5cccc(-c6cnc7ccc(N8CCC[C@@H]8c8cccc(F)c8)nn67)n5)CC4)cc3C2=O)C(=O)N1 (stereo partly drawn) [TR-185, 3-(6-(3-(4-(6-(6-((R)-2-(3-fluorophenyl)pyrrolidin-1-yl)imidazo[1,2-b]pyridazin-3-yl)pyridin-2-yl)piperazin-1-yl)propyl)-1-oxoisoindolin-2-yl)piperidine-2,6-dione]
IC50 (Table 3): 17.1 nM

O=C(CN1CCN(c2ccc(C(=O)Nc3n[nH]c4ccc(Cc5cc(F)cc(F)c5)cc34)c(NC3CCOCC3)c2)CC1)NCCOCCOCCNc1ccc2c(c1)C(=O)N(C1CCC(=O)NC1=O)C2=O (centres unmarked) [TR-162, N-(5-(3,5-Difluorobenzyl)-1H-indazol-3-yl)-4-(4-(2-((2-(2-(2-((2-(2,6-dioxopiperidin-3-yl)-1,3-dioxoisoindolin-5-yl)amino)ethoxy)ethoxy)ethyl)amino)-2-oxoethyl)piperazin-1-yl)-2-((tetrahydro-2H-pyran-4-yl)amino)benzamide]
IC50 (Table 3): 4.1 nM

O=C1CCC(N2C(=O)c3ccc(NCCOCCC(=O)N4CCN(c5ccc(C(=O)Nc6n[nH]c7ccc(Cc8cc(F)cc(F)c8)cc67)c(NC6CCOCC6)c5)CC4)cc3C2=O)C(=O)N1 (centres unmarked) [TR-143]
IC50 (Table 3): 5.6 nM

O=C(CN1CCN(c2cccc(-c3cnc4ccc(N5CCC[C@@H]5c5cccc(F)c5)nn34)n2)CC1)NCCOCCOCCNc1ccc2c(c1)C(=O)N(C1CCC(=O)NC1=O)C2=O (stereo partly drawn) [TR-134, N-(2-(2-(2-((2-(2,6-dioxopiperidin-3-yl)-1,3-dioxoisoindolin-5-yl)amino)ethoxy)ethoxy)ethyl)-2-(4-(6-(6-((R)-2-(3-fluorophenyl)pyrrolidin-1-yl)imidazo[1,2-b]pyridazin-3-yl)pyridin-2-yl)piperazin-1-yl)acetamide]
IC50 (Table 3): 5.6 nM

Cc1ncsc1-c1ccc(CNC(=O)[C@@H]2C[C@@H](O)CN2C(=O)[C@@H](NC(=O)COCC(=O)N2CCN(c3cccc(-c4cnc5ccc(N6CCC[C@@H]6c6cccc(F)c6)nn45)n3)CC2)C(C)(C)C)cc1 [CPD-008, (2S,4R)-1-((S)-2-(2-(2-(4-(6-(6-((R)-2-(3-Fluorophenyl)pyrrolidin-1-yl)imidazo[1,2-b]pyridazin-3-yl)pyridin-2-yl)piperazin-1-yl)-2-oxoethoxy)acetamido)-3,3-dimethylbutanoyl)-4-hydroxy-N-(4-(4-methylthiazol-5-yl)benzyl)pyrrolidine-2-carboxamide]
IC50 (Table 2): > 1000 nM

O=C1CCC(n2c(=O)n(CCCN3CCN(c4cccc(-c5cnc6ccc(N7CCC[C@@H]7c7cccc(F)c7)nn56)n4)CC3)c3ccccc32)C(=O)N1 (stereo partly drawn) [TR-228, 3-(3-(3-(4-(6-(6-((R)-2-(3-Fluorophenyl)pyrrolidin-1-yl)imidazo[1,2-b]pyridazin-3-yl)pyridin-2-yl)piperazin-1-yl)propyl)-2-oxo-2,3-dihydro-1H-benzo[d]imidazol-1-yl)piperidine-2,6-dione]
IC50 (Table 4): 56.3 nM

O=C1CCC(N2Cc3cc(NCC4CCN(c5cccc(-c6cnc7ccc(N8CCC[C@@H]8c8cccc(F)c8)nn67)n5)CC4)ccc3C2=O)C(=O)N1 (stereo partly drawn) [TR-218, 3-(5-(((1-(6-(6-((R)-2-(3-Fluorophenyl)pyrrolidin-1-yl)imidazo[1,2-b]pyridazin-3-yl)pyridin-2-yl)piperidin-4-yl)methyl)amino)-1-oxoisoindolin-2-yl)piperidine-2,6-dione]
IC50 (Table 4): 15.3 nM

O=C1CCC(N2Cc3ccc(NCCN4CCN(c5cccc(-c6cnc7ccc(N8CCC[C@@H]8c8cccc(F)c8)nn67)n5)CC4)cc3C2=O)C(=O)N1 (stereo partly drawn) [TR-196, 3-(6-((2-(4-(6-(6-((R)-2-(3-fluorophenyl)pyrrolidin-1-yl)imidazo[1,2-b]pyridazin-3-yl)pyridin-2-yl)piperazin-1-yl)ethyl)amino)-1-oxoisoindolin-2-yl)piperidine-2,6-dione]
IC50 (Table 3): 3.1 nM

O=C1CCC(N2Cc3cc(N4CC(CN5CCN(c6cccc(-c7cnc8ccc(N9CCC[C@@H]9c9cccc(F)c9)nn78)n6)CC5)C4)ccc3C2=O)C(=O)N1 (stereo partly drawn) [TR-205, 3-(5-(3-((4-(6-(6-((R)-2-(3-Fluorophenyl)pyrrolidin-1-yl)imidazo[1,2-b]pyridazin-3-yl)pyridin-2-yl)piperazin-1-yl)methyl)azetidin-1-yl)-1-oxoisoindolin-2-yl)piperidine-2,6-dione]
IC50 (Table 4): 122 nM

O=C1CCC(N2C(=O)c3ccc(/C=C/C(=O)N4CCN(c5cccc(-c6cnc7ccc(N8CCC[C@@H]8c8cccc(F)c8)nn67)n5)CC4)cc3C2=O)C(=O)N1 (stereo partly drawn) [TR-195, 2-(2,6-Dioxopiperidin-3-yl)-5-((E)-3-(4-(6-(6-((R)-2-(3-fluorophenyl)pyrrolidin-1-yl)imidazo[1,2-b]pyridazin-3-yl)pyridin-2-yl)piperazin-1-yl)-3-oxoprop-1-en-1-yl)isoindoline-1,3-dione]
IC50 (Table 3): 23.6 nM

O=C1CCC(N2C(=O)c3ccc(NCCCCCCCC(=O)N4CCN(c5ccc(C(=O)Nc6n[nH]c7ccc(Cc8cc(F)cc(F)c8)cc67)c(NC6CCOCC6)c5)CC4)cc3C2=O)C(=O)N1 (centres unmarked) [TR-136, N-(5-(3,5-Difluorobenzyl)-1H-indazol-3-yl)-4-(4-(8-((2-(2,6-dioxopiperidin-3-yl)-1,3-dioxoisoindolin-5-yl)amino)octanoyl)piperazin-1-yl)-2-((tetrahydro-2H-pyran-4-yl)amino)benzamide]
IC50 (Table 3): 23.6 nM

Cc1ncsc1-c1ccc(CNC(=O)[C@@H]2C[C@@H](O)CN2C(=O)[C@@H](NC(=O)CCCCC(=O)N2CCN(c3ccc(C(=O)Nc4n[nH]c5ccc(Cc6cc(F)cc(F)c6)cc45)c(NC4CCOCC4)c3)CC2)C(C)(C)C)cc1 [CPD-044, (2S,4R)-1-((S)-2-(6-(4-(4-((5-(3,5-difluorobenzyl)-1H-indazol-3-yl)carbamoyl)-3-((tetrahydro-2H-pyran-4-yl)amino)phenyl)piperazin-1-yl)-6-oxohexanamido)-3,3-dimethylbutanoyl)-4-hydroxy-N-(4-(4-methylthiazol-5-yl)benzyl)pyrrolidine-2-carboxamide]
IC50 (Table 2): 73 nM
